Results from patent US5342853A, “Method of using nor-verapamil and nor-gallopamil as anti-arteriosclerotics” (priority 1989, dated 1994).

What was measured:
[1] = test system: atheromas (carotid artery); assay: Antiatherogenic action on rabbits: carotid atheromas induced by electrical stimulation plus cholesterol-rich diet, 28 days; type: in vivo, male rabbits; conditions: for Maximum number of cell layers in the atheromas / Maximum number of cell layers in the atheromas, % change: 28 days; for Maximum number of cell layers in the atheromas, % change: vs untreated control; for Action against arteriosclerosis (in words): general statement; for Inhibition of the development of atheromas (in words): compared with verapamil
Description: (§1) Local atheromas are induced by the method of E. Betz and W. Schlote (Basic Res. Cardiol. 1979, 74, 10-20) by electrical stimulation of the carotid artery while, at the same time, feeding a cholesterol-rich diet (2%). At the end of the test period, the atheromas formed under the anode of the stimulating electrodes are removed and their size is determined histologically. Used as a measure of the size of the atheromas is the maximum number of their cell layers determined microscopically from serial sections. The extent of the antiarteriosclerotic action is established by comparison with untreated control animals. Verapamil and gallopamil are used as comparative substances.

[2] = as above; type: in vivo, male rabbits; conditions: rabbit, in vivo; rabbits, oral part of the daily dose (given with s.c. doses); read-out: Highest tolerated daily dose, oral
Description: as §1

[3] = rabbits, highest tolerated daily dose 2 × 0.215 mg/kg s.c. + 4.64 mg/kg oral
[4] = rabbits, daily dose 2 × 1.0 mg/kg s.c. + 21.5 mg/kg oral, verapamil, nor-gallopamil *P < 0.05, nor-verapamil P = 0.682
[5] = rabbits, daily dose 2 × 1.0 mg/kg s.c. + 21.5 mg/kg oral

Compound | Antiatherogenic effect (in words) ([1]; rabbits, at the highest tolerated daily dose) | Maximum number of cell layers in the atheromas [1, 3] | Maximum number of cell layers in the atheromas, % change [1, 3] | MTD at 672 h [2] [mg/kg] | Action against arteriosclerosis (in words) [1] | Inhibition of the development of atheromas (in words) ([1]; rabbits) | Maximum number of cell layers in the atheromas [1, 4] | Maximum number of cell layers in the atheromas, % change [1, 5] [%]
COc1ccc(CCN(C)CCCC(C#N)(c2cc(OC)c(OC)c(OC)c2)C(C)C)cc1OC (centres unmarked) [Gallopamil, 5-[N-(3,4-dimethoxyphenethyl)-N-methylamino]-2-(3,4,5-trimethoxyphenyl]-2-isopropyl-valeronitrile] | no antiatherogenic effect | 15 ± 0.99 | +7.1% | 4.64 |  |  |  | 
COc1ccc(CCNCCCC(C#N)(c2cc(OC)c(OC)c(OC)c2)C(C)C)cc1OC (centres unmarked) [Nor-gallopamil] |  |  |  |  | very good action against arteriosclerosis | inhibit the development of atheromas to about the same extent as verapamil | 12 ± 1.3 | -44
COc1ccc(CCNCCCC(C#N)(c2ccc(OC)c(OC)c2)C(C)C)cc1OC (centres unmarked) [Nor-verapamil, 5-[N-(3,4-dimethoxyphenethyl)-amino]-2-(3,4-dimethoxyphenyl)-2-isopropyl-valeronitrile] |  |  |  |  | very good action against arteriosclerosis | inhibit the development of atheromas to about the same extent as verapamil | 8.1 ± 1.3 | -40
COc1ccc(CCN(C)CCCC(C#N)(c2ccc(OC)c(OC)c2)C(C)C)cc1OC (centres unmarked) [Verapamil, 5-[N-(3,4-dimethoxyphenethyl)-N-methylamino]-2-(3,4-dimethoxyphenyl)-2-isopropyl-valeronitrile] |  |  |  |  |  |  | 3.8 ± 0.37 | -51
